Patent US20240317736A1, “DEUTERATED DERIVATIVE AS ATX INHIBITOR, AND APPLICATION THEREOF” (Xizang Haisco Pharmaceutical Co., Ltd., priority 2020, published 2024)
Like-named read-outs stand apart in the source and are kept apart here.

What was measured:
[1] = biological target: T1, autocrine motility factor (Homo sapiens, UniProt Q13822); experiment: Inhibition of LPA formation in mixed ex vivo human plasma; assay type: biochemical; details: 37° C., 2 h
T1 construct: Whole blood was anticoagulated with heparin and centrifuged, and then plasma was collected; from tissue; host or cells: pooled human plasma (heparin-anticoagulated whole blood)
Description: Autocrine motility factor is a phosphodiesterase in plasma that converts lysophosphatidylcholine (LPC) to lysophosphatidic acid (LPA). Therefore, the formation of LPA can be used to evaluate the potency of an autocrine motility factor inhibitor. The potency of the compound in mixed ex vivo human plasma was evaluated.
Whole blood was anticoagulated with heparin and centrifuged, and then plasma was collected. 5 μL of gradient-diluted test compounds or DMSO was added to 95 μL of plasma and incubated at 37° C. for 2 h. After that, a stop buffer (40 mM disodium hydrogen phosphate buffer, containing 30 mM of citric acid, pH=4) was added. LPA in plasma was detected by LC-MSMS before and after incubation. In order to determine the concentration of LPA 18:2 or LPA 20:4 in the plasma in study, calibration standard substances at 20000 ng/mL, 10000 ng/mL, 5000 ng/ml, 2000 ng/ml, 1000 ng/mL, 500 ng/mL, 200 ng/ml, 100 ng/mL, 50 ng/ml, 20 ng/mL and 10 ng/ml for LPA 18:2 or LPA 20:4 were prepared by performing serial dilution in butanol. 3 μL of calibration standard solution was added to 27.0 μL of blank plasmas in each 1.5 mL microcentrifuge tube to produce 1× calibration standard substances. 30.0 μL of standard substances or plasma in study was added to each 1.5 mL microcentrifuge tube. 200 μL of butanol (containing 25.0 ng/mL LPA 17:0 for internal control) was added to each 1.5 mL microcentrifuge tube containing the plasma in study or calibration standard substance. Vortex oscillation was performed for 1 min, and centrifugation was performed at 10000 rpm for 10 min. 180 μL of the supernatant was transferred to a 96-well plate, and LC/MS/MS was used together with the standard substance to quantify the concentration of LPA 18:2 in the plasma. In short, 8 μL of the solution was injected, and LC-MS/MS analysis using an ACQUITY UPLC BEH C18 column (2.1×50 mm, 1.7 μm) was performed, wherein mobile phase A [20 mM NH4OAC aqueous solution (0.1% FA)] and mobile phase B [5 mM NH4OAC aqueous solution/0.2% FA in ACN=5:95] were used. The parameters of a mass spectrometer for LPA 18:2 were optimized by means of deprotonation of molecular ions. For LPA 18:2 at m/z 433.2([M−H]−), LPA 20:4 at 457.2, and LPA 18:2 and LPA 20:4 both at m/z 152.8, abundant product ions were obtained. Quantitative data were obtained in a multiple reaction monitoring (MRM) negative electrospray ionization mode.
The inhibition rates of compounds at different concentrations on LPA formation were determined by comparing the changes of LPA levels in incubated and unincubated plasma. The IC50 of the compounds was calculated as a calculation inhibition rate, and the relative concentration at each well=the concentration at each well−the average concentration at baseline.
Inhibition rate %=(average relative concentration at control well−average relative concentration at test well)/average relative concentration at control well×100%. The curve was plotted with the inhibition rates as a y axis and the compound concentrations as an x axis, and fitting was performed by GraphPad Prism7.0 using log (inhibitor) and normalized response (variable slope).

[2] = Pharmacokinetic test in rats; assay type: in vivo; details: male, SD, rat, plasma; for Cmax: read-out: C0 or Cmax; for bioavailability: PO 5 mg/kg vs IV 1 mg/kg
Description: Test objective: test compounds were given to SD rats via single-dose intravenous and intragastric administration, the concentrations of the test compounds in plasma of rats were measured, and the pharmacokinetic characteristics and bioavailability of test compounds in rats were evaluated.
Test animals: male SD rats, about 220 g, 6-8 weeks old, six rats/compound, purchased from Chengdu Ddossy Experimental Animals Co., Ltd.
Test method: on the day of the test, 6 SD rats were randomly grouped according to their body weights. The rats were fasted with water available for 12-14 h one day before the administration, and were fed 4 h after the administration. The administration was performed according to Table 5.
Before and after the administration, 0.1 mL of blood was taken from the orbits of the rats under isoflurane anaesthesia, and placed in an EDTAK2 centrifuge tube. Centrifugation was performed at 5000 rpm at 4° C. for 10 min, and plasma was collected.
Time points for sample collection in group G1 comprise 0 min, 5 min, 15 min, 30 min, 1 h, 2 h, 4 h, 6 h, 8 h and 24 h.
Time points for sample collection in group G2 comprise 0 min, 15 min, 30 min, 1 h, 2 h, 4 h, 6 h, 8 h and 24 h.
30 μL of each of plasma samples, standard curve samples and quality control samples was taken, and 200 μL of acetonitrile solution containing an internal standard was added, and the resulting mixture was homogeneously mixed by vortex and centrifuged at 4° C. at 12000 rpm for 10 min. 170 μL of the supernatant was taken to a 96-well plate, and LC-MS/MS analysis was performed, wherein the sample size was 2 μL.
The main pharmacokinetic parameters were analyzed by a non-compartmental model using WinNonlin 8.0 software.

[3] = LPA 18:2 by LC-MS/MS, read-out: IC50 for inhibiting LPA formation (18:2)
[4] = LPA 20:4 by LC-MS/MS, read-out: IC50 for inhibiting LPA formation (20:4)

SMILES | IC50 [1, 3] | IC50 [1, 4] | AUC ([2]; IV 1 mg/kg) | half-life ([2]; IV 1 mg/kg) | Cmax ([2]; IV 1 mg/kg) | AUC ([2]; PO 5 mg/kg) | Tmax ([2]; PO 5 mg/kg) | half-life ([2]; PO 5 mg/kg) | bioavailability [2] | Cmax ([2]; PO 5 mg/kg)
[2H]C([2H])([2H])C([2H])([2H])c1nn2cc(F)c(N3CCN(CC(=O)N4CC(O)C4)CC3)cc2c1N(C)c1nc(-c2ccc(F)cc2)c(C#N)s1 [Compound 1, 2-((2-(ethyl-d5)-6-fluoro-5-(4-(2-(3-hydroxyazetidin-1-yl)-2-oxoethyl)piperazin-1-yl)pyrazolo[1,5-a]pyridin-3-yl)(methyl)amino)-4-(4-fluorophenyl)thiazole-5-carbonitrile] | 46 nM | 48.5 nM | 1060 ± 124 ng·h/mL | 2.6 ± 0.61 h | 967 ± 106 ng/mL | 1170 ± 46 ng·h/mL | 4 ± 2 h | 6.4 ± 2.4 h | 22.1 ± 0.87% | 181 ± 10 ng/mL
[2H]C([2H])([2H])N(c1nc(-c2ccc(F)cc2)c(C#N)s1)c1c(C([2H])([2H])C([2H])([2H])[2H])nn2cc(F)c(N3CCN(CC(=O)N4CC(O)C4)CC3)cc12 [Compound 2, 2-((2-(ethyl-d5)-6-fluoro-5-(4-(2-(3-hydroxyazetidin-1-yl)-2-oxoethyl)piperazin-1-yl)pyrazolo[1,5-a]pyridin-3-yl)(methyl-d3)amino)-4-(4-fluorophenyl)thiazole-5-carbonitrile] | 52 nM | 55.3 nM | 1330 ± 83 ng·h/mL | 2.4 ± 0.35 h | 1030 ± 62 ng/mL | 2570 ± 449 ng·h/mL | 4.33 ± 2.9 h | 2.87 ± 0.15 h | 38.6 ± 6.7% | 297 ± 105 ng/mL
[2H]c1c([2H])c(-c2nc(N(c3c(CC)nn4cc(F)c(N5CCN(CC(=O)N6CC(O)C6)CC5)cc34)C([2H])([2H])[2H])sc2C#N)c([2H])c([2H])c1F [Compound 10, 2-((2-ethyl-6-fluoro-5-(4-(2-(3-hydroxyazetidin-1-yl)-2-oxoethyl)piperazin-1-yl)pyrazolo[1,5-a]pyridin-3-yl)(methyl-d3)amino)-4-(4-fluorophenyl-2,3,5,6-d4)thiazole-5-carbonitrile] |  |  | 1050 ± 84 ng·h/mL | 2.05 ± 0.29 h | 813 ± 85 ng/mL | 1960 ± 858 ng·h/mL | 2.83 ± 2 h | 2.63 ± 0.071 h | 37.3 ± 6% | 234 ± 136 ng/mL
[2H]c1c([2H])c(-c2nc(N(C)c3c(CC)nn4cc(F)c(N5CCN(CC(=O)N6CC(O)C6)CC5)cc34)sc2C#N)c([2H])c([2H])c1F [Compound 9, 2-((2-ethyl-6-fluoro-5-(4-(2-(3-hydroxyazetidin-1-yl)-2-oxoethyl)piperazin-1-yl)pyrazolo[1,5-a]pyridin-3-yl)(methyl)amino)-4-(4-fluorophenyl-2,3,5,6-d4)thiazole-5-carbonitrile] |  |  | 943 ± 109 ng·h/mL | 1.93 ± 0.072 h | 748 ± 187 ng/mL | 2420 ± 860 ng·h/mL | 1.17 ± 0.76 h | 2.43 ± 0.33 h | 51.3 ± 18% | 399 ± 137 ng/mL
[2H]C1([2H])N(CC(=O)N2CC(O)C2)C([2H])([2H])C([2H])([2H])N(c2cc3c(N(C)c4nc(-c5ccc(F)cc5)c(C#N)s4)c(CC)nn3cc2F)C1([2H])[2H] [Compound 4, 2-((2-ethyl-6-fluoro-5-(4-(2-(3-hydroxyazetidin-1-yl)-2-oxoethyl)piperazin-1-yl-2,2,3,3,5,5,6,6-d8)pyrazolo[1,5-a]pyridin-3-yl)(methyl)amino)-4-(4-fluorophenyl)thiazole-5-carbonitrile] | 51.8 nM | 54.8 nM |  |  |  |  |  |  |  | 
